Laboratory results taken from paper PMC11509018, “Evaluation of the Role of Tanshinone I in an In Vitro System of Charcot-Marie-Tooth Disease Type 2N” (International Journal of Molecular Sciences, 2024).

Target: T1, AlaRS G102R binding to Nrp1 (Homo sapiens, UniProt P49588, G102R)
T1 construct: expressed in transfected cells
T1 sequence (P49588 1-968 G102R): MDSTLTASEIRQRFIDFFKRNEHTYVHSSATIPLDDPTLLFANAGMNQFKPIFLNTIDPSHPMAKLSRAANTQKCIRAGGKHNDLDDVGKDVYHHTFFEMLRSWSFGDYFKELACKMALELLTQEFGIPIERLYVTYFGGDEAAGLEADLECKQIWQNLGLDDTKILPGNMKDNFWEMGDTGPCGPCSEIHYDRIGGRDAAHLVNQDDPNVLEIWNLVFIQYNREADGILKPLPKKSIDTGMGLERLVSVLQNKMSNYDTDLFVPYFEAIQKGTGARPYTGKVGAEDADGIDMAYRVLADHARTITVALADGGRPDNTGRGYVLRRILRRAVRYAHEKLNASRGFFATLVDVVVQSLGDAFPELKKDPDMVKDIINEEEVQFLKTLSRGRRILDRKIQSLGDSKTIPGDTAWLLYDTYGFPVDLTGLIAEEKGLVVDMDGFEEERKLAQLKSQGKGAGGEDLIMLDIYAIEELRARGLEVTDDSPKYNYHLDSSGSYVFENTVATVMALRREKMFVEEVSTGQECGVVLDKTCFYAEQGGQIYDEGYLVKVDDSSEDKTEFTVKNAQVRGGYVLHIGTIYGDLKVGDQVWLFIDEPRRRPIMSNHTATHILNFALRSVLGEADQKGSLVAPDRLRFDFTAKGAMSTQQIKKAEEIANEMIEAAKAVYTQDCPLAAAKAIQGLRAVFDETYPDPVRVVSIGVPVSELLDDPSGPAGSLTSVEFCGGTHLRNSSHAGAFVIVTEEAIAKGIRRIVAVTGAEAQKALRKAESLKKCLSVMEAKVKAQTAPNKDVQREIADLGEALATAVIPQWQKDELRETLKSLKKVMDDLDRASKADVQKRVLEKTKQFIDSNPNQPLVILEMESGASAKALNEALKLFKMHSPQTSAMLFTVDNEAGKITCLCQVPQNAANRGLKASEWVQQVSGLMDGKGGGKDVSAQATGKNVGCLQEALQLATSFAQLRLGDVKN
Test: Co-IP of HA-AlaRS mutant with Nrp1 in transfected cells
Format: cell-based
Conditions: 20 µM Tanshinone I for 24 h, ImageJ, average of three repeats
Protocol: To further investigate whether Tanshinone I-induced conformational changes in AlaRS CMT mutants affect their interaction with Nrp1, Co-IP experiments were performed in cells treated with Tanshinone I. By comparing Co-IP results obtained before and after treatment, we assessed the influence of the drug on the binding strength and mode between the AlaRS CMT mutants and Nrp1. […] To confirm the direct effect of Tanshinone I on the interaction between AlaRS CMT mutants and Nrp1, pull-down experiments were performed. […] Given that the interaction between AlaRS mutants and Nrp1 is associated with disease progression in CMT, the ability of Tanshinone I to disrupt this binding highlights its potential to intervene in the pathogenic mechanisms of these diseases.
Figure 7 The impact of Tanshinone I on the interaction between AlaRS mutants and Nrp1. (A) Co-IP assays were conducted to assess the binding between HA-AlaRS mutants and Nrp1, both with and without treatment with 20 µM Tanshinone I for 24 h. […] (C) Pull down assay was performed to detect the binding between AlaRS mutants and GST-Nrp1 b1 with or without 20 µM Tanshinone I. (D) Relative quantification statistics of the AlaRS mutants pulled down from the GST pull down experiments after Tanshinone I treatment were performed using ImageJ. (E) The cell viability of 293T and NSC34 cells treated with different concentrations of Tanshinone I was assessed using the CCK-8 assay over a 24 h period. TEXT PRINTED IN THE PICTURE: (B) Tanshinone I: Mean density band (N71Y): 0.60; Mean density band (G102R): 0.53; Mean density band (R326W): 0.50; Mean density band (R329H): 0.50; Mean density band (E337K): 0.62 | (D) Tanshinone I: Mean density band (N71Y): 0.82; Mean density band (G102R): 0.76; Mean density band (R326W): 0.84; Mean density band (R329H): 0.84; Mean density band (E337K): 0.90
Total protein was extracted from cells using RIPA buffer (50 mM Tris-HCl pH 7.4, 150 mM NaCl, 1% NP40, 1 mM EDTA) supplemented with a protease and phosphatase inhibitor cocktail (Roche, Basel, Switzerland). After SDS-PAGE, the protein on the gel was transferred to a PVDF membrane (Bio-Rad, Hercules, CA, USA) and then blocked with 5% non-fat dry milk in TBST for 1 h. Then, the membranes were incubated with the indicated primary antibodies and corresponding HRP-conjugated secondary antibodies. Signals were detected using the Bio-Rad ChemiDoc system (Bio-Rad, Shanghai, China). The following antibodies were used: Flag (Ray antibody biotech, Beijing, China, 1:3000), HA (Ray antibody biotech, Beijing, China, 1:3000), and GAPDH (Ray antibody biotech, Beijing, China, 1:5000).
To detect the binding of Nrp1 and AlaRS mutants in cells, whole-cell lysates (500 μg) were treated overnight with 2 μg of anti-Flag antibody in RIPA buffer. Next, Protein A/G agarose beads (#sc-2003, Santa Cruz Biotechnology, Santa Cruz, CA, USA) were applied to the lysates and the samples were further treated for 8–12 h with rotation. Samples were washed three times with RIPA buffer. Subsequently, the immunoprecipitations were resuspended into 2 × SDS-loading buffer. The samples were then boiled for 10 min and detected using Western blot. The experiment was repeated three times.

- Mean density band (G102R), relative quantification of AlaRS mutant immunoprecipitated: 0.53
Structure (SMILES): Cc1coc2c1C(=O)C(=O)c1c-2ccc2c(C)cccc12 [Tanshinone I]
